What all share (type): nucleic-acid assay
Assay [1] has as its system Nucleic Acid. Kind of assay: Binding affinity to AAA TAT ATA GTG C DNA sequence assessed as melting temperature by thermal denaturation assay.
For assay [2], the system named is Nucleic Acid. Kind of assay: Binding affinity to AAA UAU AUA GUG C RNA sequence assessed as melting temperature by thermal denaturation assay.
The test system of assay [3] is Nucleic Acid. Kind of assay: Binding affinity to AAA TAT ATA GTG C DNA sequence assessed as change in melting temperature by thermal denaturation assay.
In assay [4] the test system is Nucleic Acid. Kind of assay: Binding affinity to AAA UAU AUA GUG C RNA sequence assessed as change in melting temperature by thermal denaturation assay.
The test system of assay [5] is Nucleic Acid. Kind of assay: Binding affinity to AAA TAT ATA GTG DNA sequence by fluorescence emission spectrum analysis.
For assay [6], the system named is Nucleic Acid. Kind of assay: Binding affinity to AAA UAU AUA GUG C RNA sequence by fluorescence emission spectrum analysis.
For assay [7], the system named is Nucleic Acid. Kind of assay: Binding affinity to CGT AGA GTG DNA sequence assessed as melting temperature by thermal denaturation assay.
Assay [8] relates to Nucleic Acid. Kind of assay: Binding affinity to CGU AGA GUG RNA sequence assessed as melting temperature by thermal denaturation assay.
Assay [9] relates to Nucleic Acid. Kind of assay: Binding affinity to CGT AGA GTG DNA sequence assessed as change in melting temperature by thermal denaturation assay.
In assay [10] the test system is Nucleic Acid. Kind of assay: Binding affinity to CGU AGA GUG RNA sequence assessed as change in melting temperature by thermal denaturation assay.
Assay [11] has as its system Nucleic Acid. Kind of assay: Binding affinity to CGT AAA GTG DNA sequence assessed as change in melting temperature by thermal denaturation assay.
In assay [12] the test system is Nucleic Acid. Kind of assay: Binding affinity to CGT ACA GTG DNA sequence assessed as change in melting temperature by thermal denaturation assay.
In assay [13] the test system is Nucleic Acid. Kind of assay: Binding affinity to CGT ATA GTG DNA sequence assessed as change in melting temperature by thermal denaturation assay.
Assay [14] has as its system Nucleic Acid. Kind of assay: Binding affinity to CGU AAA GUG RNA sequence assessed as change in melting temperature by thermal denaturation assay.
The subject of assay [15] is Nucleic Acid. Kind of assay: Binding affinity to CGU ACA GUG RNA sequence assessed as change in melting temperature by thermal denaturation assay.
Assay [16] concerns Nucleic Acid. Kind of assay: Binding affinity to CGU AUA GUG RNA sequence assessed as change in melting temperature by thermal denaturation assay.

Each structure is given as a SMILES string.

The Tm is the temperature at the midpoint of the melting transition. By ΔTm is commonly meant the shift of the melting midpoint relative to a reference.

Regarding `Cc1cn([C@@H]2O[C@@]3(COP(=O)(O)O[C@H]4[C@@H](O)[C@H](n5cnc6c(N)ncnc65)O[C@@H]4COP(=O)(O)O[C@H]4[C@@H]5[C@H](n6cc(C)c(=O)[nH]c6=O)O[C@@]4(COP(=O)(O)O[C@H]4C[C@H](n6cc(C)c(=O)[nH]c6=O)O[C@@H]4COP(=O)(O)O[C@H]4C[C@H](n6cc(C)c(=O)[nH]c6=O)O[C@@H]4COP(=O)(O)O)CN5C(=O)c4ccc5ccc6cccc7ccc4c5c67)CN(C(=O)c4ccc5ccc6cccc7ccc4c5c67)[C@@H]2[C@@H]3OP(=O)(O)OC[C@H]2O[C@@H](n3cnc4c(N)ncnc43)[C@H](O)[C@@H]2OP(=O)(O)OC[C@H]2O[C@@H](n3cc(C)c(=O)[nH]c3=O)C[C@@H]2OP(=O)(O)OC[C@H]2O[C@@H](n3cnc4c(N)ncnc43)[C@H](O)[C@@H]2OP(=O)(O)OC[C@H]2O[C@@H](n3cc(C)c(=O)[nH]c3=O)C[C@@H]2OP(=O)(O)OC[C@H]2O[C@@H](n3ccc(N)nc3=O)[C@H](O)[C@@H]2OP(=O)(O)OC[C@H]2O[C@@H](n3cnc4c(N)ncnc43)[C@H](O)[C@@H]2OP(=O)(O)OC[C@H]2O[C@@H](n3ccc(N)nc3=O)[C@H](O)[C@@H]2OP(=O)(O)OC[C@H]2O[C@@H](n3cnc4c(=O)[nH]c(N)nc43)[C@H](O)[C@@H]2O)c(=O)[nH]c1=O`, the Tm in assay [1] was 46.5 °C; in assay [2], 48 °C. The ΔTm in assay [3] came out at 6.5 °C; in assay [4] it was 8 °C. Besides, the fold change (FC) in assay [5] and in assay [6] was 3.5 each time.

For the compound `Cc1cn([C@@H]2O[C@@]3(COP(=O)(O)O[C@H]4[C@@H](O)[C@H](n5cnc6c(=O)[nH]c(N)nc65)O[C@@H]4COP(=O)(O)O)CN(C(=O)c4ccc5ccc6cccc7ccc4c5c67)[C@@H]2[C@@H]3OP(=O)(O)OC[C@H]2O[C@@H](n3cnc4c(N)ncnc43)[C@H](O)[C@@H]2OP(=O)(O)OC[C@H]2O[C@@H](n3cc(C)c(=O)[nH]c3=O)C[C@@H]2OP(=O)(O)OC[C@@]23CN(C(=O)c4ccc5ccc6cccc7ccc4c5c67)[C@@H]([C@H](n4cc(C)c(N)nc4=O)O2)[C@@H]3OP(=O)(O)OC[C@H]2O[C@@H](n3cc(C)c(=O)[nH]c3=O)C[C@@H]2OP(=O)(O)OC[C@H]2O[C@@H](n3ccc(N)nc3=O)[C@H](O)[C@@H]2OP(=O)(O)OC[C@H]2O[C@@H](n3cnc4c(N)ncnc43)[C@H](O)[C@@H]2OP(=O)(O)OC[C@H]2O[C@@H](n3ccc(N)nc3=O)[C@H](O)[C@@H]2O)c(=O)nc1N`, the Tm in [7] came to 45 °C; in assay [8], 47 °C. Besides, the thermal shift (ΔTm) was 5.5 °C in [9]; 5.5 °C in assay [10]; -27 °C in assay [11]; -30 °C in [12]; -32.5 °C in [13]. Besides, the fold change (FC) in [5] and in assay [6] was 3.6 in each case.

With `Cc1cn([C@@H]2O[C@@]3(COP(=O)(O)O[C@H]4[C@@H](O)[C@H](n5cnc6c(=O)[nH]c(N)nc65)O[C@@H]4COP(=O)(O)O)CN(C(=O)c4ccc5ccc6cccc7ccc4c5c67)[C@@H]2[C@@H]3OP(=O)(O)OC[C@H]2O[C@@H](n3cnc4c(N)ncnc43)[C@H](O)[C@@H]2OP(=O)(O)OC[C@H]2O[C@@H](n3cc(C)c(=O)[nH]c3=O)C[C@@H]2OP(=O)(O)OC[C@@]23CN(C(=O)c4ccc5ccc6cccc7ccc4c5c67)[C@@H]([C@H](n4cc(C)c(N)nc4=O)O2)[C@@H]3OP(=O)(O)OC[C@H]2O[C@@H](n3cc(C)c(=O)[nH]c3=O)C[C@@H]2OP(=O)(O)OC[C@@]23CN(C(=O)c4ccc5ccc6cccc7ccc4c5c67)[C@@H]([C@H](n4cc(C)c(N)nc4=O)O2)[C@@H]3OP(=O)(O)OC[C@H]2O[C@@H](n3cnc4c(N)ncnc43)[C@H](O)[C@@H]2OP(=O)(O)OC[C@H]2O[C@@H](n3ccc(N)nc3=O)[C@H](O)[C@@H]2O)c(=O)nc1N`, the results for the Tm in assay [7] and in assay [8] were 49.5 °C and 62 °C, respectively. Also, the thermal shift (ΔTm) is 5 °C in assay [9]; 8.5 °C in [10]; -27 °C in assay [11]; -31 °C in assay [12]; -31.5 °C in [13]. The fold change (FC) in assay [5] and in [6] was 3.6 throughout.

With `Cc1cn([C@H]2C[C@H](OP(=O)(O)OC[C@H]3O[C@@H](n4ccc(N)nc4=O)[C@H](O)[C@@H]3OP(=O)(O)OC[C@H]3O[C@@H](n4cnc5c(N)ncnc54)[C@H](O)[C@@H]3OP(=O)(O)OC[C@H]3O[C@@H](n4ccc(N)nc4=O)[C@H](O)[C@@H]3O)[C@@H](COP(=O)(O)O[C@H]3[C@@H](O)[C@H](n4ccc(N)nc4=O)O[C@@H]3COP(=O)(O)O[C@H]3C[C@H](n4cc(C)c(=O)[nH]c4=O)O[C@@H]3COP(=O)(O)O[C@H]3[C@@H](O)[C@H](n4cnc5c(N)ncnc54)O[C@@H]3COP(=O)(O)O[C@H]3[C@@H](O)[C@H](n4ccc(N)nc4=O)O[C@@H]3COP(=O)(O)O[C@H]3[C@@H](O)[C@H](n4cnc5c(=O)[nH]c(N)nc54)O[C@@H]3COP(=O)(O)O)O2)c(=O)[nH]c1=O`, the Tm amounted to 34.5 °C in assay [7] and 36.5 °C in assay [8]. The ΔTm was under -24.5 °C in assay [11]; under -24.5 °C in assay [12]; -21.5 °C in assay [13]; -23.5 °C in [14]; under -26.5 °C in [15]; under -26.5 °C in [16].

`Cc1cn([C@@H]2O[C@@]3(COP(=O)(O)O[C@H]4C[C@H](n5cc(C)c(=O)[nH]c5=O)O[C@@H]4COP(=O)(O)O[C@H]4[C@@H]5[C@H](n6cc(C)c(N)nc6=O)O[C@@]4(COP(=O)(O)O[C@H]4C[C@H](n6cc(C)c(=O)[nH]c6=O)O[C@@H]4COP(=O)(O)O[C@H]4[C@@H](O)[C@H](n6cnc7c(N)ncnc76)O[C@@H]4COP(=O)(O)O[C@H]4[C@@H](O)[C@H](n6ccc(N)nc6=O)O[C@@H]4COP(=O)(O)O[C@H]4[C@@H](O)[C@H](n6cnc7c(=O)[nH]c(N)nc76)O[C@@H]4COP(=O)(O)O)CN5C(=O)c4ccc5ccc6cccc7ccc4c5c67)CN(C(=O)c4ccc5ccc6cccc7ccc4c5c67)[C@@H]2[C@@H]3OP(=O)(O)OC[C@H]2O[C@@H](n3cnc4c(N)ncnc43)[C@H](O)[C@@H]2OP(=O)(O)OC[C@H]2O[C@@H](n3ccc(N)nc3=O)[C@H](O)[C@@H]2O)c(=O)nc1N`: the Tm stood at 43 °C in [7] and 52.5 °C in assay [8]. The ΔTm in [9] is 4.5 °C; in assay [10], 8 °C; in [11], -27 °C; in assay [12], -30 °C; in assay [13], -30 °C. The fold change (FC) in assay [5] and in [6] was 3.6 each time.

With `Cc1cn([C@@H]2O[C@@]3(COP(=O)(O)O[C@H]4C[C@H](n5cc(C)c(=O)[nH]c5=O)O[C@@H]4COP(=O)(O)O[C@H]4[C@@H](O)[C@H](n5ccc(N)nc5=O)O[C@@H]4COP(=O)(O)O[C@H]4C[C@H](n5cc(C)c(=O)[nH]c5=O)O[C@@H]4COP(=O)(O)O[C@H]4[C@@H](O)[C@H](n5cnc6c(N)ncnc65)O[C@@H]4COP(=O)(O)O[C@H]4[C@@H](O)[C@H](n5ccc(N)nc5=O)O[C@@H]4COP(=O)(O)O[C@H]4[C@@H](O)[C@H](n5cnc6c(=O)[nH]c(N)nc65)O[C@@H]4COP(=O)(O)O)CN(C(=O)c4ccc5ccc6cccc7ccc4c5c67)[C@@H]2[C@@H]3OP(=O)(O)OC[C@H]2O[C@@H](n3cnc4c(N)ncnc43)[C@H](O)[C@@H]2OP(=O)(O)OC[C@H]2O[C@@H](n3ccc(N)nc3=O)[C@H](O)[C@@H]2O)c(=O)nc1N`, the values for the midpoint of thermal melting (Tm) in [7] and in [8] were 37 °C and 40 °C, respectively. Besides, the results for the ΔTm in assay [9] and in assay [10] were 2.5 °C and 3.5 °C, respectively.

Take `Cc1cn([C@@H]2O[C@@]3(COP(=O)(O)O[C@H]4C[C@H](n5cnc6c(N)ncnc65)O[C@@H]4COP(=O)(O)O[C@H]4C[C@H](n5cnc6c(=O)[nH]c(N)nc65)O[C@@H]4COP(=O)(O)O[C@H]4[C@H]5OC[C@]4(COP(=O)(O)O[C@H]4C[C@H](n6cnc7c(=O)[nH]c(N)nc76)O[C@@H]4CO)O[C@H]5n4cc(C)c(=O)[nH]c4=O)CO[C@@H]2[C@@H]3OP(=O)(O)OC[C@H]2O[C@@H](n3cnc4c(N)ncnc43)C[C@@H]2OP(=O)(O)OC[C@@]23CO[C@@H]([C@H](n4cc(C)c(=O)[nH]c4=O)O2)[C@@H]3OP(=O)(O)OC[C@H]2O[C@@H](n3cnc4c(=O)[nH]c(N)nc43)C[C@@H]2OP(=O)(O)OC[C@H]2O[C@@H](n3ccc(N)nc3=O)C[C@@H]2O)c(=O)[nH]c1=O`: the Tm in assay [1] was determined as 45.5 °C; in assay [2], 46.5 °C. In addition, the thermal shift (ΔTm) was found to be 6 °C in assay [3] and 7 °C in assay [4]. Besides, the fold change (FC) in assay [5] and in [6] was 3.5 throughout.

Source of the values: ChEMBL document CHEMBL1629435, “Novel insights into the use of Glowing LNA as nucleic acid detection probes--influence of labeling density and nucleobases” (Bioorg Med Chem Lett, 2010).
